According to ChEMBL document CHEMBL4177690, “(E)-3-(3,4,5-Trimethoxyphenyl)-1-(pyridin-4-yl)prop-2-en-1-one, a heterocyclic chalcone is a potent and selective CYP1A1 inhibitor and cancer chemopreventive agent” (Bioorg Med Chem Lett, 2017):

How the values were obtained:
[1] = target: T1, Cytochrome P450 1A1 (Homo sapiens, UniProt P04798); test: Inhibition of human CYP1A1 expressed in yeast microsomal membranes using 7-ethoxyresorufin as substrate measured after 10 mins by fluorescence assay; assay type: cell membranes
T1 sequence (P04798 whole entry): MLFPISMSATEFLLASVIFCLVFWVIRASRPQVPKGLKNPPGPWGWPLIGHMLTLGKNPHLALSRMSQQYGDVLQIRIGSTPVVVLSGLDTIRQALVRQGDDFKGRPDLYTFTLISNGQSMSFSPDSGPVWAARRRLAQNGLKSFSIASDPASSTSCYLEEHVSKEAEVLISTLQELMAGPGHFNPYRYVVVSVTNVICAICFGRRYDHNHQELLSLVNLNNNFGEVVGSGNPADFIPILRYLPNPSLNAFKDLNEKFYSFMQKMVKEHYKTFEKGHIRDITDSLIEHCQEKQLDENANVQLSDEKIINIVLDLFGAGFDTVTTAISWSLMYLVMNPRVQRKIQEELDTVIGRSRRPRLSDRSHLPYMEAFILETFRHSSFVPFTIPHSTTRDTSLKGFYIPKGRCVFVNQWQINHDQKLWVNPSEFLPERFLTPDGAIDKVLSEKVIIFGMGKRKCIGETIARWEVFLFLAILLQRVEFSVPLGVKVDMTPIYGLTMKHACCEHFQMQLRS

[2] = target: T2, Cytochrome P450 1B1 (Homo sapiens, UniProt Q16678); test: Inhibition of human CYP1B1 expressed in yeast microsomal membranes using 7-ethoxyresorufin as substrate measured after 10 mins by fluorescence assay; assay type: cell membranes
T2 sequence (Q16678 whole entry): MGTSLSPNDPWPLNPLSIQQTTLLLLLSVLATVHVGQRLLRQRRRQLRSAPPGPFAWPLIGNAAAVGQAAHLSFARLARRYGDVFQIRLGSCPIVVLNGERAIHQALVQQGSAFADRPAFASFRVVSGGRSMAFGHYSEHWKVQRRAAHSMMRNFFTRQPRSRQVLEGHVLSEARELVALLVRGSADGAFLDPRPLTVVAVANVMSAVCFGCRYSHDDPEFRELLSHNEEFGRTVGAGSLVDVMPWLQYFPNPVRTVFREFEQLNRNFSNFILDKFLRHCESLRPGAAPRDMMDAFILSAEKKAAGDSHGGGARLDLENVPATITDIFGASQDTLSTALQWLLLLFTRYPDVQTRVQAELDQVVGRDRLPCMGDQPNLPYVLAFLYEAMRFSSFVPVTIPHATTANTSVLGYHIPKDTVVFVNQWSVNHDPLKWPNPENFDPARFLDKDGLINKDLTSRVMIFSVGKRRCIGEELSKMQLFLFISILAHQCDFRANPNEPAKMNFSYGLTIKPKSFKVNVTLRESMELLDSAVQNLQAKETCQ

[3] = target: T3, Cytochrome P450 1A2 (Homo sapiens, UniProt P05177); test: Inhibition of human CYP1A2 expressed in yeast microsomal membranes using 3-cyano-7-ethoxycoumarin as substrate measured after 10 mins by fluorescence assay; assay type: ADME, cell membranes, Microsomal Membrane
T3 sequence (P05177 whole entry): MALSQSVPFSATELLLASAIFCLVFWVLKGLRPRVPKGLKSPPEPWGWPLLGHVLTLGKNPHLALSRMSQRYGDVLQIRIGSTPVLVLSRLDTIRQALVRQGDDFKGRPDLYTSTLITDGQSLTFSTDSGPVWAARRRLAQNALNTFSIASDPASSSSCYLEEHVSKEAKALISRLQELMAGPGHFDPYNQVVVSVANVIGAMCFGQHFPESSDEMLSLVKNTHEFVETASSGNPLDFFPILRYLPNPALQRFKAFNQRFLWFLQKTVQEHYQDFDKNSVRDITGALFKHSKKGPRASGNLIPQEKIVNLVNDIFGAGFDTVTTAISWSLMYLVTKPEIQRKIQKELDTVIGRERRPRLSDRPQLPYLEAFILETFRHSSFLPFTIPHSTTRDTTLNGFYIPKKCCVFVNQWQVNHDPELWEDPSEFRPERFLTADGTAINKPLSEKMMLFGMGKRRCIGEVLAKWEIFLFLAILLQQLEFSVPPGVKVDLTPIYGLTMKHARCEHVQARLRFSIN

[4] = target: T4, Cytochrome P450 2D6 (Homo sapiens, UniProt P10635); test: Inhibition of human CYP2D6 expressed in yeast microsomal membranes using 7-ethoxy-methyloxy-3-cyanocoumarin as substrate measured after 10 mins by fluorescence assay; assay type: ADME, cell membranes, Microsomal Membrane
[5] = target: T5, Cytochrome P450 2C9 (Homo sapiens, UniProt P11712); test: Inhibition of human CYP2C9 expressed in yeast microsomal membranes using 3-cyano-7-ethoxycoumarin as substrate measured after 10 mins by fluorescence assay; assay type: ADME, cell membranes, Microsomal Membrane
[6] = target: T6, Cytochrome P450 2C19 (Homo sapiens, UniProt P33261); test: Inhibition of human CYP2C19 expressed in yeast microsomal membranes using 3-cyano-7-ethoxycoumarin as substrate measured after 10 mins by fluorescence assay; assay type: ADME, cell membranes, Microsomal Membrane
[7] = target: T7, Cytochrome P450 3A4 (Homo sapiens, UniProt P08684); test: Inhibition of human CYP3A4 expressed in yeast microsomal membranes using dibenzylfluorescein as substrate measured after 10 mins by fluorescence assay; assay type: ADME, cell membranes, Microsomal Membrane
[8] = target: T1, Cytochrome P450 1A1; test: Inhibition of recombinant human CYP1A1 expressed in HEK293 cells using 7-ethoxyresorufin as substrate pretreated for 30 mins followed by substrate addition measured for 60 mins by fluorescence assay; assay type: cell-based
[9] = target: T2, Cytochrome P450 1B1; test: Inhibition of recombinant human CYP1B1 expressed in HEK293 cells using 7-ethoxyresorufin as substrate pretreated for 30 mins followed by substrate addition measured for 60 mins by fluorescence assay; assay type: cell-based
[10] = target: T3, Cytochrome P450 1A2; test: Inhibition of recombinant human CYP1A2 expressed in HEK293 cells using 3-cyano-7-ethoxycoumarin as substrate pretreated for 30 mins followed by substrate addition measured for 60 mins by fluorescence assay; assay type: ADME
[11] = target: T4, Cytochrome P450 2D6; test: Inhibition of recombinant human CYP2D6 expressed in HEK293 cells using 7-ethoxy-methyloxy-3-cyanocoumarin as substrate pretreated for 30 mins followed by substrate addition measured for 60 mins by fluorescence assay; assay type: ADME, cell-based
[12] = target: T5, Cytochrome P450 2C9; test: Inhibition of recombinant human CYP2C9 expressed in HEK293 cells using 3-cyano-7-ethoxycoumarin as substrate pretreated for 30 mins followed by substrate addition measured for 60 mins by fluorescence assay; assay type: ADME
[13] = target: T6, Cytochrome P450 2C19; test: Inhibition of recombinant human CYP2C19 expressed in HEK293 cells using 3-cyano-7-ethoxycoumarin as substrate pretreated for 30 mins followed by substrate addition measured for 60 mins by fluorescence assay; assay type: ADME
[14] = target: T7, Cytochrome P450 3A4; test: Inhibition of recombinant human CYP3A4 expressed in HEK293 cells using dibenzylfluorescein as substrate pretreated for 30 mins followed by substrate addition measured for 60 mins by fluorescence assay; assay type: ADME
[15] = target: T8, Aryl hydrocarbon receptor (Homo sapiens, UniProt P35869); test: Antagonist activity at recombinant human eGFP-fused Ahr expressed in yeast cells co-expressing ARNT assessed as inhibition of benzo(a)pyrene-induced Ahr activation at 1 uM measured after 18 hrs by fluorescence assay; assay type: cell-based
T8 sequence (P35869 whole entry): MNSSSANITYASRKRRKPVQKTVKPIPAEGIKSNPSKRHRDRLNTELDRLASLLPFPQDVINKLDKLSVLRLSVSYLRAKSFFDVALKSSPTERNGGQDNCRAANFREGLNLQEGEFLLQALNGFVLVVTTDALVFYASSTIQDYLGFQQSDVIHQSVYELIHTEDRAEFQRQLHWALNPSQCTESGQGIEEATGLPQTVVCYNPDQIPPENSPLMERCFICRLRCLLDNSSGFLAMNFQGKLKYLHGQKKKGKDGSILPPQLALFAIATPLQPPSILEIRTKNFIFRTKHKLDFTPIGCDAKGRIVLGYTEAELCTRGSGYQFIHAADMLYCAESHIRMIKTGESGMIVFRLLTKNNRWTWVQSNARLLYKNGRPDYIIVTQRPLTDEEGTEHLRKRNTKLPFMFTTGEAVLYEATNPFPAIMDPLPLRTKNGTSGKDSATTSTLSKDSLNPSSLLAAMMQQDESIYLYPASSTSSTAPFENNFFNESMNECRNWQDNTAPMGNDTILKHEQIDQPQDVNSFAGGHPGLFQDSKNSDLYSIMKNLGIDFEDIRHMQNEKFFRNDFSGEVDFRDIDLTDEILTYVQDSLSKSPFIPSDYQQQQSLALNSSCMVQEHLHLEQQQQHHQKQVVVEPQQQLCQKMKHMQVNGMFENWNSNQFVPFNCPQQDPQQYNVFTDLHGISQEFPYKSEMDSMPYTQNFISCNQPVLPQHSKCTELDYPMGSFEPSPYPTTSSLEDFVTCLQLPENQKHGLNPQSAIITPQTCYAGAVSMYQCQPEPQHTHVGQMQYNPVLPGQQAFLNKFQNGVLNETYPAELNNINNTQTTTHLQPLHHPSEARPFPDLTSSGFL

[16] = organism: Homo sapiens; test: Selectivity ratio of IC50 for recombinant human CYP1B1 expressed in HEK293 cells to IC50 for recombinant human CYP1A1 expressed in HEK293 cells; assay type: cell-based
[17] = organism: Homo sapiens; test: Selectivity ratio of IC50 for recombinant human CYP1A2 expressed in HEK293 cells to IC50 for recombinant human CYP1A1 expressed in HEK293 cells; assay type: cell-based
[18] = target: T1, Cytochrome P450 1A1; test: Inhibition of recombinant human CYP1A1 expressed in HEK293 cells assessed as reduction in benzo(a)pyrene-induced toxicity by measuring increase in B[a]P EC50 at 2 times IC50 by MTT assay; assay type: cell-based
[19] = target: T2, Cytochrome P450 1B1; test: Inhibition of recombinant human CYP1B1 expressed in HEK293 cells assessed as potentiation of cisplatin-induced cytotoxicity by measuring reduction in cisplatin EC50 by MTT assay; assay type: cell-based

T4 sequence (P10635 whole entry): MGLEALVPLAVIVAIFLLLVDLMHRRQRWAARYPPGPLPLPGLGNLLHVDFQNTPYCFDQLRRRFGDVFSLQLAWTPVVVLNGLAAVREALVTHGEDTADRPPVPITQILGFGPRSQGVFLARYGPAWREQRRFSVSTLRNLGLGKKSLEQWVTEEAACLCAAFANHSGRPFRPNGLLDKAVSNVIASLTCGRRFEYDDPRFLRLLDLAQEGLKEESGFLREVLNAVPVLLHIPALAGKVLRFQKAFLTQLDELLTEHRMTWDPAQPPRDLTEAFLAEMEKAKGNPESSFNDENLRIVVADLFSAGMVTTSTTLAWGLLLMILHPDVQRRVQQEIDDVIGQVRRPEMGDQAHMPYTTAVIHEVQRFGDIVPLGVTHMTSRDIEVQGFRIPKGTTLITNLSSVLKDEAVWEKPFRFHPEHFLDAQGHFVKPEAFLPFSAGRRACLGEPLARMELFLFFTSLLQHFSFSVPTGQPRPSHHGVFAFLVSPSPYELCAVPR
T6 sequence (P33261 whole entry): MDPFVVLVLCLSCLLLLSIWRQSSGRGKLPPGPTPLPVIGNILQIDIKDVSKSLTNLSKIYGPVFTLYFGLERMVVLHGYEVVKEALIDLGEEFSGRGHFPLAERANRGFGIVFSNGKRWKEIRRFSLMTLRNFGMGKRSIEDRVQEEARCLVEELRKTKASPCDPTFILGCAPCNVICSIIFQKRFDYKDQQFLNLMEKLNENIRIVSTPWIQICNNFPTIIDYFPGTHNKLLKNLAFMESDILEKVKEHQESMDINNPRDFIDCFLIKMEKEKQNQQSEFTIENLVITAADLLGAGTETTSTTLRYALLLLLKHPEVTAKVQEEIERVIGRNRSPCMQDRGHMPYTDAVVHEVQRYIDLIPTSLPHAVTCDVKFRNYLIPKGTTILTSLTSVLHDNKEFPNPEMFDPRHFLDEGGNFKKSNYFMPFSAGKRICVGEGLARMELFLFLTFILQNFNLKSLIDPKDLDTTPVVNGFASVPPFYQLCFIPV
T5 sequence (P11712 whole entry): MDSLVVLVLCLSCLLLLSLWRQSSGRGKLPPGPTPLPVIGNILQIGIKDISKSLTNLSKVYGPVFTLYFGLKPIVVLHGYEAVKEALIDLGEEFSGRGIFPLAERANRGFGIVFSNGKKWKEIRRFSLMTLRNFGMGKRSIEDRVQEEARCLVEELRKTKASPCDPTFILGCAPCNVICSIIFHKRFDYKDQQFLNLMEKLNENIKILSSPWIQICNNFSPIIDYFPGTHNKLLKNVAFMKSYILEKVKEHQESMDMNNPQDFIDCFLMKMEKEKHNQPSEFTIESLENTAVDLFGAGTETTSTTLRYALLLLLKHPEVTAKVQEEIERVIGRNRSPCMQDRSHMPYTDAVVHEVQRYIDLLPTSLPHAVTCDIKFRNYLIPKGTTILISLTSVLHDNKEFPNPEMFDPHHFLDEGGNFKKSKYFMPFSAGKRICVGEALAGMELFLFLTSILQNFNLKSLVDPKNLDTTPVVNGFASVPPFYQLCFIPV
T7 sequence (P08684 whole entry): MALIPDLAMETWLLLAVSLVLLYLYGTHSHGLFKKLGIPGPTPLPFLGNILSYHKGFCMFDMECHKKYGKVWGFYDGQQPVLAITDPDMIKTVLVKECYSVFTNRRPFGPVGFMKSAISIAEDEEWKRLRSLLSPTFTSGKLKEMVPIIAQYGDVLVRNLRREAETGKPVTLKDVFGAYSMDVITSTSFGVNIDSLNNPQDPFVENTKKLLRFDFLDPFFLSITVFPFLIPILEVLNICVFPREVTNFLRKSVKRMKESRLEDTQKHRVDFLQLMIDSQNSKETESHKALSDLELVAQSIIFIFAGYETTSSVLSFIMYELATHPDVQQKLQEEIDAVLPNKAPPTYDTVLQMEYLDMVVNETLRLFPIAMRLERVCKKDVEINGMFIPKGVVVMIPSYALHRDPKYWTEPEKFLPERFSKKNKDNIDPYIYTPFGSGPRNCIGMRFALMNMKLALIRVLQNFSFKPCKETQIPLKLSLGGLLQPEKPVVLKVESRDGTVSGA

| SMILES | IC50 [1] [µM] | IC50 [2] [µM] | IC50 [3] [µM] | IC50 [4] [µM] | IC50 [5] [µM] | IC50 [6] [µM] | IC50 [7] [µM] | IC50 [8] [µM] | IC50 [9] [µM] | IC50 [10] [µM] | IC50 [11] [µM] | IC50 [12] [µM] | IC50 [13] [µM] | IC50 [14] [µM] | inhibition (INH) [15] | Ratio IC50 [16] | Ratio IC50 [17] | inhibition (INH) [18] | inhibition (INH) [19] |
| --- | --- | --- | --- | --- | --- | --- | --- | --- | --- | --- | --- | --- | --- | --- | --- | --- | --- | --- | --- |
| COc1ccc(/C=C/C(=O)c2ccncc2)c(OC)c1OC | 1.41 | 0.032 | 0.104 | 11 | > 20 | > 20 | > 20 | 1.33 | 0.022 | 0.2 | > 10 | > 10 | > 10 | > 10 | Active | – | – | – | – |
| COc1ccc(/C=C/C(=O)c2ccncc2)cc1OC | 0.38 | 0.17 | 0.12 | 8 | > 20 | > 20 | > 20 | 0.42 | 0.23 | 0.12 | > 10 | > 10 | > 10 | > 10 | – | – | – | – | – |
| O=c1cc(-c2ccccc2)oc2c1ccc1ccccc12 [ALPHA-NAPHTHOFLAVONE] | – | – | – | – | – | – | – | – | – | – | – | – | – | – | – | – | – | Active | Active |

More lines, main results first:

| IC50 [1] [µM] | IC50 [2] [µM] | IC50 [3] [µM] | IC50 [4] [µM] | IC50 [5] [µM] | IC50 [6] [µM] | IC50 [7] [µM] | IC50 [8] [µM] | IC50 [9] [µM] | IC50 [10] [µM] | IC50 [11] [µM] | IC50 [12] [µM] | IC50 [13] [µM] | IC50 [14] [µM] | inhibition (INH) [15] | SMILES | Ratio IC50 [16] | Ratio IC50 [17] | inhibition (INH) [18] | inhibition (INH) [19] |
| --- | --- | --- | --- | --- | --- | --- | --- | --- | --- | --- | --- | --- | --- | --- | --- | --- | --- | --- | --- |
| 0.092 | 8.62 | 1.19 | 14 | > 20 | > 20 | > 20 | 0.092 | 9.92 | 1.09 | > 10 | > 10 | > 10 | > 10 | – | CCOc1cc(/C=C/C(=O)c2ccncc2)cc(OCC)c1OCC | < 10 | < 10 | – | – |
| 0.063 | 3.81 | 1.32 | 17 | > 20 | > 20 | > 20 | 0.063 | 4.76 | 1.53 | > 10 | > 10 | > 10 | > 10 | – | CCOc1cc(/C=C/C(=O)c2ccncc2)cc(OC)c1OC | < 10 | < 10 | – | – |
| 0.065 | 2.92 | 0.78 | 15 | > 20 | > 20 | > 20 | 0.065 | 3.07 | 0.82 | > 10 | > 10 | > 10 | > 10 | Active | CCOc1cc(/C=C/C(=O)c2ccncc2)cc(OC)c1OCC | < 10 | < 10 | – | – |
